Active and inactive are the calls of the source. The calls are words filed in the database; no cut-off is given here.
Tests used:
[1] = test system: Human immunodeficiency virus 1; experiment: Antiviral activity against HIV-1 was determined; No inhibition; format: functional, organism-based
[2] = test system: Human betaherpesvirus 5; experiment: Antiviral activity against HCMV was determined; No inhibition; format: functional, organism-based
[3] = test system: Human alphaherpesvirus 1; experiment: Concentration required for suppression of the CPE (Cytopathic effect) of HSV-1; format: functional, organism-based; conditions: herpes simplex virus
[4] = test system: Human alphaherpesvirus 1; experiment: Compound tested for inhibition of theCPE (Cytopathic effect) of HSV-1 at 12.5 ug/mL; format: functional, herpes simplex virus
[5] = Compound tested for toxic activity at 100 ug/mL; Not toxic; format: ADME
[6] = test system: MRC5; experiment: Concentration required for cytotoxicity of MRC5 cell line was determined; format: functional, cell-based; conditions: Homo sapiens

SMILES | inhibition [1] | inhibition [2] | further results
Nc1ccn(CCC(O)CCO)c(=O)n1 (configuration not stated) | inactive | inactive | 
Nc1ncnc2c1ncn2C[C@@H](CO)OCP(=O)(O)O | inactive | inactive | 
Nc1nc(O)c2ncn(CC[C@H](O)CCO)c2n1 | inactive | inactive | Concentration [3]: 50 µg/mL; inhibition at 12.5 µg/mL [4]: 50%; Toxicity [5]: Non-toxic
Nc1ncnc2c1ncn2C[C@H](O)CO | inactive | inactive | 
Nc1ncnc2c1ncn2CCOCP(=O)(O)O | inactive | inactive | 
Cc1cn(CCC(O)CCO)c(=O)[nH]c1=O (configuration not stated) | inactive | inactive | 
Nc1nc(O)c2ncn(CCC(CO)CO)c2n1 | inactive | inactive | 
Nc1nc2c(ncn2COC(CO)CO)c(=O)[nH]1 |  |  | NA [1]: inactive; NA [2]: inactive
Nc1nc2c(ncn2CCCCO)c(=O)[nH]1 | inactive | inactive | 
Nc1ncnc2c1ncn2CCC(O)CCO (configuration not stated) | inactive | inactive | Concentration [6]: 25 µg/mL
Nc1ncnc2c1ncn2C=C=CCO | inactive | inactive | 
Nc1nc(O)c2ncn(CC(CO)CCO)c2n1 (configuration not stated) | inactive | inactive | 
Nc1nc2c(ncn2CC[C@@H](O)CO)c(=O)[nH]1 | inactive | inactive | 
Nc1nc2c(ncn2COCCO)c(=O)[nH]1 | inactive | inactive | 

— ChEMBL document CHEMBL1124905, “Synthesis of new (+-)-3,5-dihydroxypentyl nucleoside analogues from 1-amino-5-(benzyloxy)pentan-3-ol and their antiviral evaluation” (J Med Chem, 1990)
